From ChEMBL document CHEMBL3872273, “α-Pyrone derivatives, tetra/hexahydroxanthones, and cyclodepsipeptides from two freshwater fungi” (Bioorg Med Chem, 2017)
pIC50: −log10 of the molar value. ≈ marks a conversion by molar mass, not a printed value. Calls of active or inactive are those of the source. No cut-off for these calls is given here.

Key:
[1] = test system: Salmonella enterica subsp. enterica serovar Typhimurium; experiment: (§1) Inhibition of Salmonella typhimurium Peptidyl-tRNA hydrolase assessed as reduction in peptidyl-tRNA cleavage to free tRNA by gel electrophoresis
[2] = test system: Escherichia coli; experiment: Antimicrobial activity against Escherichia coli; assay type: functional
[3] = test system: Candida albicans; experiment: Antimicrobial activity against Candida albicans; assay type: functional
[4] = test system: Escherichia coli; experiment: Inhibition of Escherichia coli Peptidyl-tRNA hydrolase assessed as reduction in peptidyl-tRNA cleavage to free tRNA by gel electrophoresis
[5] = test system: Staphylococcus aureus; experiment: Antimicrobial activity against Staphylococcus aureus; assay type: functional
[6] = test system: Pseudomonas aeruginosa; experiment: Inhibition of Pseudomonas aeruginosa Peptidyl-tRNA hydrolase assessed as reduction in peptidyl-tRNA cleavage to free tRNA by gel electrophoresis
[7] = test system: Aspergillus niger; experiment: Antimicrobial activity against Aspergillus niger; assay type: functional
[8] = test system: Mycolicibacterium smegmatis; experiment: Antimicrobial activity against Mycobacterium smegmatis; assay type: functional
[9] = as §1; design: species or system Salmonella enterica subsp. enterica serovar Typhimurium

| Structure (SMILES) | inhibition [1] | MIC [2] | MIC [3] | inhibition [4] | MIC [5] | inhibition [6] | MIC [7] | MIC [8] | pIC50 [9] |
| --- | --- | --- | --- | --- | --- | --- | --- | --- | --- |
| COC(=O)[C@]12Oc3cccc(O)c3C(=O)[C@@H]1[C@H](O)C[C@@H](C)[C@@H]2O | Active | > 100 µg/mL | 100 µg/mL (≈ 310 µM) | Active | > 100 µg/mL | Active | > 100 µg/mL | > 100 µg/mL |  |
| CCCCC(O)c1cc(OC)c(C)c(=O)o1 (racemic) |  | > 35 µg/mL | > 35 µg/mL |  | > 35 µg/mL |  | > 35 µg/mL | > 35 µg/mL |  |
| COC(=O)[C@]12Oc3ccc(-c4ccc5c(c4O)C(=O)C4=C(O)C[C@@H](C)[C@H](O)[C@@]4(C(=O)OC)O5)c(O)c3C(=O)C1=C(O)C[C@@H](C)[C@@H]2O [SECALONIC ACID A] |  | > 75 µg/mL | > 75 µg/mL | Active | > 75 µg/mL | Active | > 75 µg/mL | > 75 µg/mL | 2.85 |
| CCC[C@H]1Cc2oc(=O)cc(OC)c2[C@H](O)O1 |  | 75 µg/mL (≈ 312 µM) | > 75 µg/mL |  | > 75 µg/mL |  | > 75 µg/mL | > 75 µg/mL |  |
| COc1cc(=O)oc2c1CO[C@@H](C[C@@H](C)O)C2 | Active |  |  | Active |  | Active |  |  |  |
| CCCC(O)Cc1oc(=O)cc(OC)c1CO (racemic) |  | > 55 µg/mL | > 55 µg/mL |  | > 55 µg/mL |  | > 55 µg/mL | > 55 µg/mL |  |
| CC[C@H](C)[C@@H]1NC(=O)[C@H](CCC(N)=O)N(C)C(=O)[C@@H](C(C)C)N(C)C(=O)CNC(=O)[C@@H]2CCCN2C(=O)[C@H](Cc2ccccc2)NC(=O)[C@H]([C@@H](C)CC)OC(=O)[C@H](CCC(=O)O)N(C)C(=O)[C@H](C(C)C)NC(=O)[C@@H]2CCCCN2C1=O |  | > 98 µg/mL | > 98 µg/mL |  | > 98 µg/mL |  | > 98 µg/mL | > 98 µg/mL |  |
| COC(=O)[C@]12Oc3cccc(O)c3C(=O)C1=C(O)C[C@@H](C)[C@@H]2O | Active | > 65 µg/mL | > 65 µg/mL | Active | > 65 µg/mL | Active | > 65 µg/mL | > 65 µg/mL |  |
| COc1cc(=O)oc2c1CO[C@@H](CC(C)=O)C2 [PYRENOCINE K] |  | > 25 µg/mL | > 25 µg/mL |  | > 25 µg/mL |  | > 25 µg/mL | > 25 µg/mL |  |
| COC(=O)[C@]12Oc3cccc(O)c3C(=O)[C@@H]1[C@@H](O)C[C@@H](C)[C@@H]2O |  | > 75 µg/mL | > 75 µg/mL |  | > 75 µg/mL |  | > 75 µg/mL | > 75 µg/mL |  |
| CCC[C@H]1Cc2oc(=O)cc(OC)c2CO1 | Active | > 203 µg/mL | > 203 µg/mL | Active | > 203 µg/mL | Active | 203 µg/mL (≈ 905 µM) | > 203 µg/mL |  |
| COc1cc(=O)oc2c1CO[C@@H](CO)C2 | Active | > 53 µg/mL | > 53 µg/mL | Active | > 53 µg/mL | Active | > 53 µg/mL | > 53 µg/mL |  |
| COc1cc(=O)oc(CO)c1C |  | 25 µg/mL (≈ 147 µM) | 25 µg/mL (≈ 147 µM) |  | > 25 µg/mL |  | > 25 µg/mL | 25 µg/mL (≈ 147 µM) |  |
| CCC[C@@H](O)Cc1oc(=O)cc(OC)c1C |  | > 155 µg/mL | > 155 µg/mL |  | > 155 µg/mL |  | > 155 µg/mL | > 155 µg/mL |  |
| CCCCCc1oc(=O)cc(OC)c1CO [PYRENOCINE M] |  | > 140 µg/mL | > 140 µg/mL |  | > 140 µg/mL |  | > 140 µg/mL | > 140 µg/mL |  |
| CC[C@H](C)[C@@H]1NC(=O)[C@H](CCC(N)=O)N(C)C(=O)[C@@H](C(C)C)N(C)C(=O)CNC(=O)[C@@H]2CCCN2C(=O)[C@H](Cc2ccccc2)NC(=O)[C@H]([C@@H](C)CC)OC(=O)[C@H](CCC(=O)O)N(C)C(=O)[C@H](C(C)C)NC(=O)[C@@H]2CCCN2C1=O |  | > 125 µg/mL | > 125 µg/mL |  | > 125 µg/mL |  | > 125 µg/mL | > 125 µg/mL |  |
| CCC[C@H]1OCc2c(OC)cc(=O)oc2[C@H]1O | Active | > 145 µg/mL | 145 µg/mL (≈ 604 µM) | Active | > 145 µg/mL | Active | > 145 µg/mL | 145 µg/mL (≈ 604 µM) |  |
